The text below walks through data of patent US11008286B2, “Amino mercaptan compound and preparation method therefor and use thereof in protection against radiation” (Institute of Radiation Medicine Chinese Academy of Medical …, priority 2016, dated 2021).

Data set [1] relates to C57 male mice. As to the kind of experiment: Example G: effect of stereoisomerism on survival rate of mice under 7.5Gy irradiation. The format is in vivo. The following applies: 200 mg/kg IP 30 min before irradiation; for deaths: 9 mice per group. The text has this: Laboratory animals: C57 male mice, 19-21 g, purchased from Beijing HFK Bioscience Co. Ltd., license number SCXK (Beijing), 9 mice in each group.

For data set [2], the system named is C57BL/6 mice. The data set can be described thus: Example A: 30-day survival of mice after whole-body 137Cs γ-ray irradiation. The following applies: 200 mg/kg intraperitoneally. It is filed as in vivo. How it is done:
Material: The gamma ray irradiation device is a ^137Cs irradiator, with a dose rate of 0.7Gy/min. C57BL/6 mice, male, weighing 21-22 g, purchased from Beijing HFK Bioscience Co. Ltd., certificate number SCXK (Beijing) 2014-0004, grouped as: no irradiation group, irradiation and blank solvent group, irradiation and administration group, with 5 mice in each group.
The 30-day survival of the mice in each group was observed, the survival rates were calculated, the body weights were followed, and the organs and white blood cells of mice in each group were compared after 30 days.
Results: At the same administration dose of the four compounds (200 mg/kg, one dose at 24 hours before irradiation and one dose at 30 minutes before irradiation), one-time whole body irradiation with 6.8Gy, 7.2Gy and 7.5Gy ^137Cs gamma rays was performed, respectively, compared with the radiation and blank solvent group. The 30-day survival rate of mice was 100% when compound 1 was used in the cases of irradiations of 6.8Gy and 7.2Gy, respectively. The effects of normal control group and compound 1, compound 2, compound 3 and compound 4 on organs and leukocytes in mice 30 days after irradiation with 7.2Gy are shown in FIG. 4. The effects of normal control group and compound 1 on organs and leukocytes in mice 30 days after irradiation with 6.8Gy and 7.5Gy, respectively, are shown in FIGS. 2 and 6.

Data set [3] deals with C57 male mice. The settings on record: for survival rates compared with amifostine: absorbed dose 6.8Gy and 7.2Gy.
Experimental: Laboratory animals: C57 male mice, 8-10 weeks old, 20-22 g, were divided into 4 groups, 5 or 10 or 15 or 20 or 25 mice in each group.
Observation index: The death and weight of the mice were recorded, and the survival rate was calculated on the 30th day.
Data set [4] concerns C57 male mice. It is filed as in vivo. The following applies: no irradiation, 30-day. How it is done:
Administration and grouping: Each group was intraperitoneally injected with one corresponding dose of amifostine. • Each group was intraperitoneally injected with one corresponding dose of Example 17 (IP).
The 30-day survival rate of mice in each group was recorded.

The mark [5] stands for this setting: 6.8Gy, 200 mpk IP 30 min before irradiation, day 30.
Setting [6] is: 7.5Gy, 400 mpk IP 90 min before irradiation.
Setting [7] is: 7.5Gy, 800 mpk IP 90 min before irradiation.

Each structure is given as a SMILES string. Counter-ions that a name gives are not always drawn. Like-named read-outs stand apart in the source and are kept apart here. Where a SMILES comes first, the peptide text is derived from it. [ ]: non-standard residue; d: D form.
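Wherever survival rates compared with amifostine is given: mice aged 8-10 weeks, weighing 20-22 g, with deaths logged and survival rate computed on day 30.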

Turning to `CNC(=O)C(CS)NC(=O)C(CS)NC` (racemic) [Example 19, 3-mercapto-N-(3-mercapto-1-(methylamino)-1-oxopropan-2-yl)-2-(methylamino) propionamide trifluoroacetate], in data set [1], the “Survival number/Test number” value was 2/9 and the deaths entry was “(7 deaths)”.
In the case of `CNC(=O)C(CS)NC(=O)C(CS)NC(=O)C(CS)NC` (racemic) [Example 20, (RS)-3-mercapto-N—((RS)-3-mercapto-1-(((RS)-3-mercapto-1-(methylamino)-1-oxopropan-2-yl)amino)-1-oxopropan-2-yl)-2-(methylamino) propanamide trifluoroacetate], in data set [1], the “Survival number/Test number” value is 1/9 and the deaths result is on record as “(8 deaths)”.
Turning to `N[C@H](CS)C(=O)O` [D-Cys, D-cysteine, reference compound], in data set [1], the “Survival number/Test number” value is 0/9 and the deaths entry is recorded as “(9 deaths)”.
`NC(=O)[C@H](CS)NC(=O)[C@@H](N)CS` [Example 1, (R)-2-amino-N—((R)-1-amino-3-mercapto-1-oxopropan-2-yl)-3-mercaptopropanamide trifluoroacetate] (H-Cys-Cys-NH2) showed a 30-day survival rate in data set [2] (6.8Gy 137Cs γ rays whole body) of 100%. The molecule also yielded a 30-day survival rate in data set [2] (7.2Gy 137Cs γ rays whole body) of 100%. Also, in data set [3] (7.2Gy, 200 mpk IP, day 30), the “Survival number/Test number” value is recorded as 6/10 and the Survival rate came to 60%. The “survival rates compared with amifostine” value in data set [3] is on record as “survival rates comparable to those using amifostine”. Further, in data set [1], the “Survival number/Test number” value was 1/9, the Survival rate result is listed as “approximately 11%” and the deaths result is on record as “(8 deaths)”.
On to `CNC(=O)[C@H](CS)NC(=O)[C@H](CS)NC` [Example 2, (R)-3-mercapto-N—((R)-3-mercapto-1-(methylamino)-1-oxopropan-2-yl)-2-(methylamino) propionamide trifluoroacetate], for which, in data set [3] (7.2Gy, 200 mpk IP, day 30), the “Survival number/Test number” value was 10/15 and the Survival rate is listed as 66.67%. In data set [3], the “survival rates compared with amifostine” value is “survival rates comparable to those using amifostine”. Further, in data set [1], the “Survival number/Test number” value was 4/9, the Survival rate entry is given as “approximately 44%” and the deaths result is reported as “(5 deaths)”.
For the molecule `NC(=O)[C@H](CS)NC(=O)[C@H](CS)NC(=O)[C@@H](N)CS` [Example 3, (R)-2-amino-N—((R)-1-(((R)-1-amino-3-mercapto-1-oxopropan-2-yl)amino)-3-mercapto-1-oxopropan-2-yl)-3-mercaptopropanamide trifluoroacetate] (H-Cys-Cys-Cys-NH2), in data set [3] (7.2Gy, 200 mpk IP, day 30), the “Survival number/Test number” value is listed as 10/15 and the Survival rate is 66.67%. In addition, in data set [3], the “survival rates compared with amifostine” value is reported as “survival rates comparable to those using amifostine”. In data set [1], the “Survival number/Test number” value was 2/9, the Survival rate result is “approximately 22%” and the deaths entry was “(7 deaths)”.
Consider `CNC(=O)[C@@H](CS)NC(=O)[C@@H](CS)NC(=O)[C@@H](CS)NC` [Example 8, (S)-3-mercapto-N—((S)-3-mercapto-1-(((S)-3-mercapto-1-(methylamino)-1-oxopropan-2-yl)amino)-1-oxopropan-2-yl)-2-(methylamino) propanamide], for which, in data set [3] (7.2Gy, 200 mpk IP, day 30), the “Survival number/Test number” value is listed as 1/5 and the Survival rate turned out to be 20%. In addition, the “survival rates compared with amifostine” value in data set [3] is given as “survival rates comparable to those using amifostine”.
Turning to `NC(=O)[C@H](CS)NC(=O)[C@H](N)CS` [Example 17, (S)-2-amino-N—((R)-1-amino-3-mercapto-1-oxopropan-2-yl)-3-mercaptopropanamide trifluoroacetate] (H-[dC]-Cys-NH2), the “Survival number/Test number” value was 5/5 in data set [4] (400 mpk IP); 5/5 in data set [4] (800 mpk IP); 4/5 in data set [4] (1600 mpk IP); 5/5 in data set [3] (setting [5]); 9/10 in data set [3] (7.2Gy, 200 mpk IP, day 30); 0/5 in data set [3] (7.5Gy, 200 mpk IP, day 30). The “Survival number/Test number” value in data set [3] (setting [6]) and in data set [3] (setting [7]) was 0/5 in each case. Further, the Survival rate is reported as 100% in data set [3] (setting [5]); 90% in data set [3] (7.2Gy, 200 mpk IP, day 30); 0% in data set [3] (7.5Gy, 200 mpk IP, day 30); 0% in data set [3] (setting [6]); 0% in data set [3] (setting [7]). For the same molecule, the “survival rates compared with amifostine” value in data set [3] is reported as “survival rates comparable to those using amifostine”.
In the case of `NC(=O)[C@@H](CS)NC(=O)[C@@H](N)CS` [Example 18, (R)-2-amino-N—((S)-1-amino-3-mercapto-1-oxopropan-2-yl)-3-mercaptopropanamide trifluoroacetate] (H-Cys-[dC]-NH2), in data set [3] (7.2Gy, 200 mpk IP, day 30), the “Survival number/Test number” value is 4/5 and the Survival rate came out at 80%. In data set [3], the “survival rates compared with amifostine” value was “survival rates comparable to those using amifostine”.
Take `N[C@@H](CS)C(=O)O` [L-Cys, L-cysteine, reference compound]: in data set [1], the “Survival number/Test number” value is recorded as 1/9 and the deaths entry is listed as “(8 deaths)”.
